Results: patent publication US20220009914A1, “Analogs of Nitrofuran Antibiotics to Combat Resistance” (The Trustees of Indiana University, priority 2020, published 2022)
Read-outs that look alike come from different tables or passages of the source.

Columns and labels:
native rhodanese = target: T1, native rhodanese (Bos taurus, UniProt P00586); assay: native rhodanese enzymatic activity counter-screen; type: biochemical
T1 sequence (P00586 1-297): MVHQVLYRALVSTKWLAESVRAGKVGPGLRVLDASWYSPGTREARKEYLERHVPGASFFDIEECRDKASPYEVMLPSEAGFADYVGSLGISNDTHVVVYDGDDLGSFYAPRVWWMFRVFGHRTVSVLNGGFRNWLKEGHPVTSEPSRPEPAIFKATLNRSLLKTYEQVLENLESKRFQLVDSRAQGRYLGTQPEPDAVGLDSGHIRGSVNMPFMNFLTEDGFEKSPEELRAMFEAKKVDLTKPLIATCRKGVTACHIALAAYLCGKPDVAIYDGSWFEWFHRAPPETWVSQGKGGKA
Description: Counter-screening compounds for inhibition of native rhodanese enzymatic activity. Reagent Preparations & Assay Protocol: Reagents were identical to those used in the GroEL/ES-dRho refolding assay described above; however, the assay protocol differed in the sequence of compound addition to the wells. Compounds were pin-transferred after 50 minute incubation for the refolding cycle, but prior to the addition of the thiocyanate enzymatic assay stock. Thus, the refolding reactions were allowed to proceed for 50 min at 37° C. in the absence of test compounds, but the enzymatic activity of the refolded rhodanese reporter enzyme was monitored in the presence of test compounds (inhibitor concentration range during the enzymatic reporter reaction is 100 μM to 46 nM—3-fold dilutions). IC50 values for the rhodanese reporter enzyme were determined as described above. Results presented represent the averages of IC50 values obtained from at least four replicates.
All compounds were counter-screened for inhibiting the enzymatic activity of the native Rho reporter enzyme as per our previously reported procedure. Results presented represent the averages of IC50 values obtained from at least four replicates.

E. coli GroEL = target: T2, E. coli GroEL (Escherichia coli, UniProt P0A6F5); assay: GroEL-mediated ATPase assay; type: biochemical
T2 construct: made in house; host or cells: NEB 5-alpha E. coli
T2 sequence (P0A6F5 2-548): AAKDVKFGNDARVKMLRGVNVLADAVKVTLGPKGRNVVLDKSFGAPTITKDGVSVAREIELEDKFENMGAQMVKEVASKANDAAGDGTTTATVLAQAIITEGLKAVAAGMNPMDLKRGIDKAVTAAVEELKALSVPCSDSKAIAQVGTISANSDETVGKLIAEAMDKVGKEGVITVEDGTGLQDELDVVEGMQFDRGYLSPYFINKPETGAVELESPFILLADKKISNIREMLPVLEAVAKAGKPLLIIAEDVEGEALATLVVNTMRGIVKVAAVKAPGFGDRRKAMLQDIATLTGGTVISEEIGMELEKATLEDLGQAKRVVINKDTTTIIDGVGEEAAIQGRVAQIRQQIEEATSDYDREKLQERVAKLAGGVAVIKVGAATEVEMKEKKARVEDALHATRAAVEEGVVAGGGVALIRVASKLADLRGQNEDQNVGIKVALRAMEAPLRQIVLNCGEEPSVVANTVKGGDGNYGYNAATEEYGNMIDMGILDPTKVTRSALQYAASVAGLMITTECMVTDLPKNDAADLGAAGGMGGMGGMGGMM
Description: Evaluating compounds for inhibition in the GroEL-mediated ATPase assay. All compounds were evaluated for inhibiting E. coli GroEL-mediated ATPase activity as per our previously reported procedure although employing only GroEL in solution and not containing GroES or denatured MDH. Evaluating compounds for inhibition in the GroEL-mediated ATPase assay.
Reagent preparation: For this assay, four primary reagent solutions were prepared: 1) GroEL protein solution; 2) ATP initiation solution; 3) EDTA quench solution; 4) malachite green reporter solution. The GroEL protein solution consisted of 100 nM of GroEL in folding buffer (50 mM Tris-HCl, pH 7.4, 50 mM KCl, 10 mM MgCl2, and 1 mM DTT), which was prepared immediately prior to dispensing into the assay plates. For the ATP initiation solution, ATP solid was diluted into folding buffer to a final concentration of 2 mM. Quench solution contained 300 mM EDTA (pH 8.0). The malachite green reporter solution contained 0.034% w/v malachite green, 1.04% w/v ammonium molybdate, 1% Tween-20, and 1 M HCl dissolved in H2O.
Assay Protocol: First, 10 μL aliquots of the GroEL protein solution were dispensed into clear, flat-bottom 384-well polystyrene plates. […] After incubating for 45 minutes at 37° C., 10 μL of the EDTA quench solution was added to quench the reaction cycle. Then, 60 μL of the malachite green reporter solution was added and the plates were incubated at room temperature for 10 min. The absorbance of the malachite green-phosphate complex was measured at 600 nm using a Molecular Devices SpectraMax Plus384 microplate reader. A second set of baseline control plates were prepared analogously, but without GroEL protein solution, to correct for possible interference from compound absorbance or turbidity. […] Results presented represent the averages of IC50 values obtained from at least four replicates.
Evaluating analogs for inhibiting GroEL-mediated ATPase activity. […] Thus, we further tested analogs in a well-established GroEL ATPase assay that employed malachite green to monitor inorganic phosphate liberated as GroEL hydrolyzed ATP. Briefly, a solution of GroEL was incubated with test compounds (8-point, 3-fold dilution series) and the assay was initiated by addition of ATP. After incubating for 45 minutes, the ATPase reaction was quenched by the addition of EDTA. Malachite green was then added to the assay to bind and detect free phosphates in solution (absorbance detection at k=600 nm). If analogs inhibited ATPase activity, then there would be no free phosphates for malachite green to bind, leading to minimal absorbance at 600 nm.

[1] = system: FHs 74 Int small intestine cells; assay: in vitro; conditions: for CC50: human, 48 h
Description: (§1) Evaluating compound effects on the viability of human colon and small intestine cells. […] Evaluating compound effects on the viability of human colon and small intestine cells. Evaluation of compound cytotoxicities to FHC colon and FHs 74 Int small intestine cells were performed using Alamar Blue-based viability assays. […] FHs 74 Int cells were maintained in Hybri-care medium (ATCC 46-X) supplemented with 30 ng/mL recombinant epidermal growth factor (EGF) and 10% FBS (Midwest Scientific, USDAFBS).

FHC colon cells = assay: in vitro; conditions: for CC50: human, 48 h
Description: as §1

in vitro [2] = conditions: human
Description: as §1

in vitro [3] = conditions: human; remark: listed apart in the source
Description: as §1

[4] = compounds added after refolding, read-out: Native Rho Activity IC50
[5] = GroEL only, no GroES or dMDH, read-out: GroEL ATPase IC50
[6] = CC50 intestine cells over EC50 E. coli proliferation
[7] = CC50 colon cells over EC50 E. coli proliferation

| Compound | IC50 (native rhodanese; [4]) | IC50 (E. coli GroEL) | SI (CC50/EC50) Intestine [1] | cytotoxicity to human cells in words [1] | CC50 [1] | SI (CC50/EC50) Colon (FHC colon cells) | CC50 (FHC colon cells) | IC50 (E. coli GroEL; [5]) | IC50 (native rhodanese) | SI (CC50/EC50) Intestine [1, 6] | SI (CC50/EC50) Colon (FHC colon cells; [7]) | CC50 at 48 h (in vitro [2]) | CC50 at 48 h (in vitro [3]) |
| --- | --- | --- | --- | --- | --- | --- | --- | --- | --- | --- | --- | --- | --- |
| COc1ccc(C(=O)N/N=C/c2ccc([N+](=O)[O-])o2)cc1 [Compound 20, 4-methoxy-N′-((5-nitrofuran-2-yl)methylene)benzohydrazide] | > 100 µM | > 250 µM | 40 | low to no cytotoxicity | 75 µM | >53 | > 100 µM | – | – | – | – | – | – |
| O=C(N/N=C/c1ccc([N+](=O)[O-])o1)c1cccs1 [Compound 16, N′-((5-nitrofuran-2-yl)methylene)thiophene-2-carbohydrazide] | > 100 µM | – | 168 | low to no cytotoxicity | 71 µM | 198 | 83 µM | > 250 µM | – | – | – | – | – |
| CN(C)c1ccc(C(=O)N/N=C/c2ccc([N+](=O)[O-])o2)cc1 [Compound 21, 4-(dimethylamino)-N′-((5-nitrofuran-2-yl)methylene)benzohydrazide] | > 100 µM | > 250 µM | 9.3 | – | 93 µM | >10 | > 100 µM | – | – | – | – | – | – |
| O=C(N/N=C/c1ccc([N+](=O)[O-])o1)c1ccncc1 [Compound 19, N′-((5-nitrofuran-2-yl)methylene)isonicotinohydrazide] | 38 µM | > 250 µM | 38 | – | 90 µM | 26 | 61 µM | – | – | – | – | – | – |
| O=C(N/N=C/c1ccc([N+](=O)[O-])o1)c1ccc(O)cc1 [Nifuroxazide, reference compound] | – | > 250 µM | – | low to no cytotoxicity | 79 µM | – | 61 µM | – | 69 µM | 91 | 70 | – | – |
| O=C1CN(/N=C/c2ccc([N+](=O)[O-])o2)C(=O)N1 [Nitrofurantoin, reference compound] | – | > 250 µM | – | low to no cytotoxicity | > 100 µM | – | > 100 µM | – | > 100 µM | >146 | >146 | – | – |
| O=C1CN(/N=C/c2ccc(O)c3ncccc23)C(=O)N1 [Compound 2, 1-(((8-hydroxyquinolin-5-yl)methylene)amino)imidazolidine-2,4-dione] | > 100 µM | > 250 µM | – | – | – | – | – | – | – | – | – | > 100 µM | > 100 µM |
| O=C(N/N=C/c1ccc([N+](=O)[O-])o1)c1ccccc1 [Compound 18, N′-((5-nitrofuran-2-yl)methylene)benzohydrazide] | 84 µM | > 250 µM | 45 | – | 94 µM | >48 | > 100 µM | – | – | – | – | – | – |
| O=C(N/N=C/c1ccc(O)c2ccccc12)c1ccccc1 [Compound 30, N′-((4-hydroxynaphthalen-1-yl)methylene)benzohydrazide] | 97 µM | > 250 µM | – | – | – | – | – | – | – | – | – | > 100 µM | > 100 µM |
| O=C(N/N=C/c1ccccc1)c1ccccc1 [Compound 38, N′-benzylidenebenzohydrazide] | > 100 µM | > 250 µM | – | – | – | – | – | – | – | – | – | > 100 µM | > 100 µM |
| O=C(N/N=C/c1cccc2ncccc12)c1ccccc1 [Compound 32, N′-(quinolin-5-ylmethylene)benzohydrazide] | > 100 µM | > 250 µM | – | – | – | – | – | – | – | – | – | > 100 µM | > 100 µM |
| COc1ccc(C(=O)N/N=C/c2ccc(O)cc2)cc1 [Compound 35, N′-(4-hydroxybenzylidene)-4-methoxybenzohydrazide] | > 100 µM | > 250 µM | – | – | – | – | – | – | – | – | – | > 100 µM | > 100 µM |
| O=C(N/N=C/c1ccc(O)c2ncccc12)c1ccncc1 [Compound 6, N′-((8-hydroxyquinolin-5-yl)methylene)isonicotinohydrazide] | > 100 µM | > 250 µM | – | – | – | – | – | – | – | – | – | 75 µM | > 100 µM |
| O=C(N/N=C/c1ccc([N+](=O)[O-])o1)c1ccc(Cl)s1 [Compound 17, 5-chloro-N′-((5-nitrofuran-2-yl)methylene)thiophene-2-carbohydrazide] | 56 µM | – | 190 | low to no cytotoxicity | 85 µM | 119 | 53 µM | > 250 µM | – | – | – | – | – |
| CCOc1ccc(S(=O)(=O)Nc2ccc(C(=O)N/N=C/c3ccc([N+](=O)[O-])o3)cc2)cc1 [Compound 28, 4-ethoxy-N-(4-(2-((5-nitrofuran-2-yl)methylene)hydrazine-1-carbonyl)phenyl)benzenesulfonamide] | 45 µM | > 250 µM | – | – | – | – | – | – | – | – | – | > 100 µM | 85 µM |
| O=C(N/N=C/c1ccc([N+](=O)[O-])o1)c1ccc(NS(=O)(=O)c2ccc(Br)cc2)cc1 [Compound 27, 4-bromo-N-(4-(2-((5-nitrofuran-2-yl)methylene)hydrazine-1-carbonyl)phenyl)benzenesulfonamide] | – | > 250 µM | – | – | – | – | – | – | 44 µM | – | – | > 100 µM | 90 µM |
| COc1ccc(C(=O)N/N=C/c2cccc3ccccc23)cc1 [Compound 33, 4-methoxy-N′-(naphthalen-1-ylmethylene)benzohydrazide] | > 100 µM | > 250 µM | – | – | – | – | – | – | – | – | – | > 100 µM | > 100 µM |
